Measured values published in the supplement of paper PMC8967900.

Legend:
Assay in all cases: selective drug sensitivity score (sDSS, relative to normal bone marrow) (sDSS (score)); higher = more potent and effective on the cell line relative to normal bone marrow cells
Conditions in all cases: 72 h
KASUMI-9 = system: KASUMI-9
380 = system: 380
NALM-6 = system: NALM-6
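Also: ALL cell lines in 384-well plates, five doses spanning 10,000-fold, each plate scaled between vehicle and 100 µmol/L benzalkonium chloride controls, sDSS an adapted area-under-curve metric.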

| SMILES | selective drug sensitivity score (KASUMI-9) | selective drug sensitivity score 380 | selective drug sensitivity score (NALM-6) |
| --- | --- | --- | --- |
| CNS(=O)(=O)Nc1nccc(Cc2c(C)c3ccc(Oc4ncccn4)cc3oc2=O)c1F (top concentration 1000 nM) | 0.02 | -1.18 | -0.88 |
| C[C@H]1Oc2cc(cnc2N)-c2c(nn(C)c2C#N)CN(C)C(=O)c2ccc(F)cc21 (top concentration 1000 nM) | -0.72 | -0.72 | -0.72 |
| CCc1cncnc1N1CCN(Cc2nc3cc(C(F)(F)F)ccc3[nH]2)CC1 (top concentration 10000 nM) | 3.86 | -0.84 | 1.96 |
| CN(C)CC#Cc1ccc(OCCCc2sc(N3CCc4cccc(C(=O)Nc5nc6ccccc6s5)c4C3)nc2C(=O)O)c(F)c1 (top concentration 10000 nM) | -1.24 | 15.7 | 11.3 |
| O=C(NC[C@H](O)CN1CCc2ccccc2C1)c1cc(NC2COC2)ncn1 (top concentration 10000 nM) | -0.06 | -0.06 | -0.06 |
| O=C1Cc2cc(C(=O)NC3C[C@H]4CC[C@@H](C3)N4S(=O)(=O)CC3CCN(CCCC(F)(F)F)CC3)c(Cl)cc2N1 (stereo partly specified) (top concentration 10000 nM) | 0.6 | 0 | 0 |
| CC/C(=C(\c1ccc(O)cc1)c1ccc(OCCN(C)C)cc1)c1ccccc1 [4-hydroxytamoxifen] (top concentration 10000 nM) | 3.62 | -1.48 | 0.02 |
| COCC1(CO)C(=O)C2CCN1CC2 (stereo unspecified) [APR-246] (top concentration 10000 nM) | -0.66 | 4.54 | 1.14 |
| Cc1sc2c(c1C)C(c1ccc(Cl)cc1)=N[C@@H](CC(=O)Nc1ccc(OCCOCCOCCOCCNc3cccc4c3C(=O)N(C3CCC(=O)NC3=O)C4=O)cc1)c1nnc(C)n1-2 (stereo partly specified) [ARV-825] (top concentration 300 nM) | 6.64 | 2.04 | 1.24 |
| COc1cc(OC2CCN(C)CC2)ccc1Nc1ncc2c(n1)n(C1CCCC1)c(=O)n2C [AZ3146] (top concentration 10000 nM) | -0.36 | -2.86 | 3.04 |
| CN(C)CCCOc1ccc(-c2ccc3ncc4c(c3c2)n(C2CCOCC2)c(=O)n4C)cn1 [AZD0156] (top concentration 1000 nM) | 1.04 | 2.24 | -0.06 |
| N#Cc1ccc2[nH]c(O)c(-c3ccc(CN4CCOCC4)cn3)c2c1 [AZD-1080] (top concentration 10000 nM) | 4.08 | -0.02 | 1.78 |
| CN(C)C/C=C/C(=O)Nc1cc2c(Nc3ccc(F)c(Cl)c3)ncnc2cc1O[C@H]1CCOC1 [Afatinib] (top concentration 1000 nM) | 2.16 | -0.84 | -0.84 |
| O=C(Nc1ccc(OC(F)(F)Cl)cc1)c1cnc(N2CC[C@@H](O)C2)c(-c2cc[nH]n2)c1 [Asciminib] (top concentration 1000 nM) | -1.68 | 1.92 | 0.42 |
| CC[C@@H]1C(=O)N(C)c2cnc(Nc3ccc(C(=O)NC4CCN(C)CC4)cc3OC)nc2N1C1CCCC1 [BI-2536] (top concentration 1000 nM) | 20.3 | 18.3 | 13.4 |
| Cc1ccc(NC(=O)c2ccc(CN3CC[C@H](N(C)C)C3)c(C(F)(F)F)c2)cc1Nc1nccc(-c2cncnc2)n1 [Bafetinib] (top concentration 1000 nM) | 0 | 0 | 0 |
| CC[C@H](NC(=O)[C@H](C)NC)C(=O)N1C[C@@H](O)C[C@H]1Cc1c(-c2[nH]c3cc(F)ccc3c2C[C@@H]2C[C@H](O)CN2C(=O)[C@H](CC)NC(=O)[C@H](C)NC)[nH]c2cc(F)ccc12 [Birinapant] (top concentration 1000 nM) | -5.1 | -5.1 | -4.2 |
| COc1cc2nccc(Oc3ccc(NC(=O)C4(C(=O)Nc5ccc(F)cc5)CC4)cc3)c2cc1OC [Cabozantinib] (top concentration 1000 nM) | -3.62 | -3.62 | -2.82 |
| CCCCCOC(=O)Nc1nc(=O)n([C@@H]2O[C@H](C)[C@@H](O)[C@H]2O)cc1F [Capecitabine] (top concentration 10000 nM) | -0.06 | -0.06 | -0.06 |
| Nc1nc(Cl)nc2c1ncn2[C@H]1C[C@H](O)[C@@H](CO)O1 [Cladribine] (top concentration 1000 nM) | 7.76 | 7.56 | 0.46 |
| CCN(CC)CCOc1ccc(/C(=C(/Cl)c2ccccc2)c2ccccc2)cc1 [Clomifene] (top concentration 10000 nM) | 1.72 | 1.42 | -0.28 |

| SMILES | selective drug sensitivity score (KASUMI-9) | selective drug sensitivity score 380 | selective drug sensitivity score (NALM-6) |
| --- | --- | --- | --- |
| CO[C@@H](C(=O)N1Cc2[nH]nc(NC(=O)c3ccc(N4CCN(C)CC4)cc3)c2C1)c1ccccc1 [Danusertib] (top concentration 10000 nM) | 15.5 | 22.4 | 12.5 |
| CC[C@@](C)(Nc1ccnc(-c2c[nH]c3ncccc23)n1)C(=O)NCC(F)(F)F [Decernotinib] (top concentration 10000 nM) | -3.74 | 2.56 | -3.94 |
| CN1CCN(c2ccc3nc(-c4c(N)c5c(F)cccc5[nH]c4=O)[nH]c3c2)CC1 [Dovitinib] (top concentration 10000 nM) | 0.56 | -0.14 | -0.14 |
| CC(C)(O)CNc1nc(Nc2ccnc(C(F)(F)F)c2)nc(-c2cccc(C(F)(F)F)n2)n1 [Enasidenib] (top concentration 10000 nM) | -0.8 | -0.8 | -0.8 |
| CN1CCN(c2ccc(C(=O)Nc3n[nH]c4ccc(Cc5cc(F)cc(F)c5)cc34)c(NC3CCOCC3)c2)CC1 [Entrectinib] (top concentration 1000 nM) | -1.1 | -1.2 | -1.2 |
| CNC(=O)c1ccc(N2C(=S)N(c3ccc(C#N)c(C(F)(F)F)c3)C(=O)C2(C)C)cc1F [Enzalutamide] (top concentration 10000 nM) | -0.82 | -0.82 | 0.68 |
| Cn1cc(C2=C(c3cn(C4CCN(Cc5ccccn5)CC4)c4ccccc34)C(=O)NC2=O)c2ccccc21 [Enzastaurin] (top concentration 10000 nM) | 4.36 | 3.96 | 5.26 |
| NS(=O)(=O)NCCNc1nonc1/C(=N/O)Nc1ccc(F)c(Br)c1 [Epacadostat] (top concentration 10000 nM) | 0.74 | -0.26 | -0.26 |
| CCOc1ccccc1-n1c(C(C)N2CCN(C(=O)COc3ccc(Cl)cc3)CC2)nc2ccccc2c1=O (stereo unspecified) [Erastin] (top concentration 10000 nM) | 7.74 | 24.8 | 7.44 |
| COc1cc(OC)cc(N(CCNC(C)C)c2ccc3ncc(-c4cnn(C)c4)nc3c2)c1 [Erdafitinib] (top concentration 1000 nM) | 0.34 | -0.56 | -0.56 |
| CC(C)(C)NC(=O)[C@H]1CC[C@H]2[C@@H]3CC[C@H]4NC(=O)C=C[C@]4(C)[C@H]3CC[C@]12C [Finasteride] (top concentration 10000 nM) | -0.12 | -0.52 | -0.52 |
| O=c1[nH]c(=O)n([C@H]2C[C@H](O)[C@@H](CO)O2)cc1F [Floxuridine] (top concentration 10000 nM) | 29 | 37.9 | 24.2 |
| CNc1nc(Nc2cn(C(C)(C)C#N)nc2C)ncc1C(F)(F)F [GNE-0877] (top concentration 1000 nM) | 0 | 0 | 0 |
| CCCc1cc(C)[nH]c(=O)c1CNC(=O)c1cc(-c2ccnc(N3CCN(C)CC3)c2)cc2c1cnn2C(C)C [GSK343] (top concentration 1000 nM) | 0 | 0 | 0 |
| O=C(O)c1ccc(O)c2ncccc12 [IOX-1] (top concentration 100000 nM) | 2.94 | 8.64 | 3.74 |
| CC(=O)[C@]1(O)Cc2c(O)c3c(c(O)c2[C@@H](O[C@H]2C[C@H](N)[C@H](O)[C@H](C)O2)C1)C(=O)c1ccccc1C3=O [Idarubicin] (top concentration 1000 nM) | 4.94 | 13.7 | 7.94 |
| COc1cc2nccc(Oc3ccc(NC(=O)NC4CC4)c(Cl)c3)c2cc1C(N)=O [Lenvatinib] (top concentration 2500 nM) | 1.36 | 0.06 | -0.24 |
| N#Cc1ccc(C(c2ccc(C#N)cc2)n2cncn2)cc1 [Letrozole] (top concentration 10000 nM) | -0.04 | -0.04 | -0.04 |
| CCNCCS(=O)(=O)NC[C@@]1(c2ccccc2)SC(NC(=O)C(C)(C)C)=NN1C(=O)C(C)(C)C [Litronesib] (top concentration 1000 nM) | 18.4 | 19 | 21.5 |
| CC[C@H](C)C(=O)O[C@H]1C[C@@H](C)C=C2C=C[C@H](C)[C@H](CC[C@@H]3C[C@@H](O)CC(=O)O3)[C@H]21 [Lovastatin] (top concentration 10000 nM) | 2.7 | 7.8 | -0.1 |
| Cn1cc(-c2cnn3c(N)c(Br)c([C@@H]4CCCNC4)nc23)cn1 [MK-8776] (top concentration 2500 nM) | 1.54 | 3.64 | -1.36 |
